In patent US6008188A, “Cytokine potentiator and pharmaceutical formulation for cytokine administration” (Kanebo Limited, priority 1994, dated 1999):
Where two headings read alike, the source gives them in different places.

Legend:
IFN = settings: cited from earlier work
[1] = tested on: Normal human fibroblasts [Detroit-551 (ATCC CCL 110)]; test: Response to βFGF: procollagenase production by normal human fibroblasts Detroit-551 (Test Examples 4-10); assay type: cell-based; settings: for activity at 3000 µM / activity at 1000 µM: Homo sapiens, Detroit 551, 96 h, read-out: Response to βFGF Increment; for Procollagenase Production: mean ± SD, n = 3
Experimental: (§1) In the following tests, the procollagenase production was quantified in terms of the collagenase activity as obtained through activation with trypsin.
(§2) It is known that βFGF promotes procollagenase production. In the following tests, therefore, the βFGF activity increment as attained by the compound added was calculated from the procollagenase production, relative to the control using purified water in place of the test compound.
Normal human fibroblasts [Detroit-551 (ATCC CCL 110) as prepared from the skin of a person] were suspended at a cell density of 1×10^5 cells/ml in the MEM medium, comprising 10% (V/V) FBS, 0.1% (W/V) (as final concentration) of enzymatic hydrolysate of lactalbumin (produced by Sigma Co.), 1% (V/V) non-essential amino acids and 1 mM sodium pyruvate (both produced by Dai-Nippon Pharmaceutical Co.). The suspended cells were seeded into each well of a 12-well plate in an amount of 0.8 ml/well (corresponding to 8×10^4 cells/well) and incubated in a saturated aqueous vapor with 5% CO2 at 37uC.
A cytokine activity enhancer (ethanolamine) as obtained in Example 3 mentioned below was diluted with an MEM medium containing 0.6% (V/V) FBS, 0.1% (W/V) (as final concentration) of enzymatic hydrolysate of lactalbumin, 1% (V/V) non-essential amino acids and 1 mM sodium pyruvate, to be 1 mM, and this was used as a solution to be added to the incubated cells.
After having been incubated for 24 hours, the culture medium was removed from the plate by suction, and the cells remained were washed twice with the MEM medium containing 0.6% (V/V) (as final concentration) of FBS. Then, the cells were fed with 0.8 ml of the solution prepared above, and were incubated for 4 days.
After the 4 days incubation, the culture medium was removed from the plate by suction, and the cells were fed with 0.8 ml of the MEM medium containing 3 ng/ml βFGF, 0.6% (V/V) FBS, 0.1% (W/V) (as final concentration) of enzymatic hydrolysate of lactalbumin, 1% (V/V) non-essential amino acids and 1 mM sodium pyruvate, and were incubated for 3 days to obtain a culture supernatant.
Next, in the same manner as in Test Example 1, procollagenase was recovered from the CM-Sepharose CL-6B (trade name), and the amount of procollagenase thus collected was measured.
A cytokine activity enhancer (N-methylethanolamine) as obtained in Example 4 to be mentioned hereinunder was tested for the βFGF activity increment, in the same manner as in Test Example 4.
Normal human fibroblasts [Detroit-551 (ATCC CCL 110) as collected from the skin of a person] were suspended at a cell density of 1×10^5 cells/ml in the MEM medium (hereinafter referred to as MEM2 medium), comprising 10% (V/V) FBS, 1% (V/V) (as final concentration) of non-essential amino acids and 1 mM sodium pyruvate (both produced by Dai-Nippon Pharmaceutical Co.). The cells were seeded into each well of a 12-well plate in an amount of 0.8 ml/well (corresponding to 8×10^4 cells/well) and incubated in a saturated aqueous vapor with 5% CO2 at 37° C.
A cytokine activity enhancer (Diisopropanolamine) as obtained in Example 5 mentioned below was diluted with the MEM2 medium containing 0.6% (V/V) FBS to be 3 mM, and this was used as a solution to be added to the incubated cells.
After having been incubated for 24 hours, the culture medium was removed from the plate by suction, and the cells remained were washed twice with the MEM2 medium containing 0.6% (V/V) (as final concentration) of FBS. Then, the cells were fed with 0.8 ml of the solution prepared above and were incubated for 2 days.
After the 2 days incubation, the culture was removed by filtration under suction, and 0.8 ml of the solution was again added to the remaining cells, which were then incubated for 2 days. Thus, the cells were incubated for 4 days in total. […]

[2] = tested on: Normal human fibroblasts [CCD45SK (ATCC CRL 1506)]; test: Response to βFGF: procollagenase production by normal human fibroblasts CCD45SK (Test Examples 1-3); assay type: cell-based; settings: Test Example 3, 1 mM, 10 ng/ml βFGF
Experimental: as §1, §2
Normal human fibroblasts [CCD45SK (ATCC CRL 1506) as prepared from the skin of a person] were suspended at a cell density of 1×10^5 cells/ml in the MEM medium, comprising 10% (V/V) FBS and 1% (V/V) non-essential amino acids (produced by Dai-Nippon Pharmaceutical Co.). The suspended cells were seeded into each well of a 12-well plate in an amount of 0.8 ml/well (corresponding to 8×10^4 cells/well) and incubated in a saturated aqueous vapor with 5% CO2 at 37° C. […]
After having been incubated for 24 hours, the culture medium was removed from the plate by suction, and the cells remained were washed twice with an MEM medium containing 0.6% (v/v) (as final concentration) of FBS. Then, the cells were fed with 0.8 ml of the solution prepared above added to the cells, which were incubated for 2 days.
After the 2 days incubation, the culture medium was removed from the plate by suction, and the cells were fed with 0.8 ml of the solution and were further incubated for 2 days. This operation was repeated once again. Thus, the cells were processed in the medium containing the cytokine activity enhancer for 6 days in total.
After the above-mentioned process, the culture medium was removed from the plate by suction, and the cells were fed with 0.8 ml of an MEM medium containing 3 ng/ml of βFGF (produced by Boehringer Manheim Co.) and 0.6% (V/V) FBS, and were incubated for 3 days to obtain a culture supernatant.
3.5 ml of 10 mM Tris-HCl buffer [adjusted at pH 7.8 at 4° C., containing 1 mM calcium chloride and 0.05% (W/V) Brij-35] was added to 500 μl of the thus-obtained culture supernatant, and applied to CM-Sepharose CL-6B (trade name, produced by Pharmacia Co., having a bed volume of 0.5 ml) as previously equilibrated with the same buffer.
Next, the inhibitor was removed through treatment with 0.5 ml of the same buffer as above but containing 125 mM sodium chloride (4 times in all, 2 ml of the buffer was used in total), and the procollagenase was recovered through treatment with 0.5 ml of the same buffer as above but containing 500 mM sodium chloride (4 times in all, 2 ml of the buffer was used in total). This was used as a test sample.
The test sample was suitably diluted with a buffer for measurement (mentioned above), 25 μl of the thus-diluted sample was mixed with 25 μl of the buffer, 20 μl of a trypsin solution (as prepared by adding trypsin, Type 12 (produced by Sigma Co.) to the buffer at a concentration of 1 mg/ml) was added thereto, and this was incubated at 35° C. for 5 minutes. Then, 30 μl of a soybean trypsin inhibitor solution (as prepared at a concentration of 3 mg/ml, using the buffer) was added to this to thereby inactivate the trypsin. The resulting solution is designated collagenase solution.
Using type I collagen as labeled with fluorescein isothiocyanate (hereinafter referred to as FITC) (this is an acetic acid solution of FITC-collagen having a concentration of 1 mg/ml; produced by Cosmo-Bio Co.), as a substrate solution, the collagenase activity (unit/ml) of the solution was measured according to the method of Nagai et al. (see Inflammations, Vol. 4, No. 2, p. 123, 1984). […] The procollagenase production (unit/ml of culture medium) was thus obtained and referred to as X1.

[3] = tested on: Normal human fibroblasts [CCD45SK (ATCC CRL 1506)]; test: Response to TGF-β1: TIMP production by normal human fibroblasts (Test Examples 12-13); assay type: cell-based
Experimental: Normal human fibroblasts [CCD45SK (ATCC CRL 1506) as prepared from the skin of a person] were suspended at a cell density of 1×10^5 cells/ml in the MEM medium, comprising 10% (V/V) FBS and 1% (V/V) non-essential amino acids (produced by Dai-Nippon Pharmaceutical Co.). The suspended cells were seeded into each well of a 12-well plate in an amount of 0.8 ml/well (corresponding to 8×10^4 cells/well) and incubated in a saturated aqueous vapor with 5% CO2 at 37° C.

healthy panelists = tested on: healthy panelists
Experimental: Aqueous solutions of N-methyl-L-serine, ethanolamine and N-methylethanolamine that had been adjusted to have a pH 7 with hydrochloric acid were used as test samples. These test samples were applied to 19 healthy panelists.
One hour and 24 hours after the removal of the patch, the condition of the skin of each panelist was observed.

[4] = tested on: Japanese native, male house rabbits
Experimental: Aqueous solutions of N-Methyl-L-Serine, Ethanolamine and N-Methylethanolamine that had been adjusted to have a pH of 7 with hydrochloric acid were used as test samples.
Using Japanese native, male house rabbits (body weight: about 3 kg), the test samples were tested according to the Draize method (see Appraisal of the Safety of Chemicals in Foods, Drugs and Cosmetics, p. 46, 1959, edited and published by the Deitorial Committee, Association of Food and Drug Officials of U.S.A.).
24 hours after the last application, the tested area of each rabbit was checked to score the erythema, edema, scab and rhagades, if any, formed in the area.
The erythema score, the edema score, the scab score, and the rhagades score as referred to in Table 17 were summed up to obtain the cumulative stimulation score.
Next, from the cumulative stimulation scores, obtained were the degrees of stimulation with N-Methyl-L-Serine, Ethanolamine and N-Methylethanolamine,according to the criteria shown in Table 18 below.

[5] = tested on: Japanese native, male house rabbits; remark: listed apart in the source
Experimental: Aqueous solutions of N-methyl-L-serine, ethanolamine and N-methylethanolamine that had been adjusted to have a pH 7 with hydrochloric acid were used as test samples.
Using Japanese native, male house rabbits (body weight: about 3 kg), the test samples were tested according to the above-mentioned the Draize method.
Precisely, the back of each rabbit was shaven and rubbed to form a scratched site (scratched skin). An adhesive tape for patch test (1.2×1.6 cm; Ribbon Aid, registered trade mane, produced by River Tape Chemicals Co.) as wetted with 0.1 ml of water, or 0.1 ml of an aqueous 1% (W/V) solution of the test compound was stuck onto the scratched skin and the normal skin. […] In addition, 48 hours after the peeling of the tape, the condition of the skin was also observed.
The scores as referred to in Table 21 were obtained, and the primary stimulation score was calculated according to the following equation.
Primary Stimulation Score=[(A+B)/2]+[(C+D)/2]+[(E+F)/2]+[(G+H)/2]
Next, from the primary stimulation scores, obtained was the degree of stimulation with N-Methyl-L-Serine or Ethanolamine or N-Methylethanolamineaccording to the criteria shown in Table 22 below.

[6] = Test Examples 6-10, 3 mM, 4 days, 3 ng/ml βFGF, MEM2 medium, control = 100
[7] = Test Examples 6-10, 3 mM, 4 days, 3 ng/ml βFGF, MEM2 medium
[8] = Test Examples 4-5, 1 mM, 4 days, 3 ng/ml βFGF

## CC1(C)[C@@H](O[C@H]2O[C@H](C(=O)O)[C@@H](O)[C@H](O)[C@H]2O[C@@H]2O[C@H](C(=O)O)[C@@H](O)[C@H](O)[C@H]2O)CC[C@]2(C)[C@H]3C(=O)C=C4[C@@H]5C[C@@](C)(C(=O)O)CC[C@]5(C)CC[C@@]4(C)[C@]3(C)CC[C@@H]12 [Glychrrhizic acid, glycyrrhizic acid]
IFN
  IFN-producing activity: has an IFN-producing activity

## CCC(N)CO (stereo not shown) [Example 7, 2-Amino-1-Butanol]
[1]; [6]
  activity at 3000 µM: 190%
[1]; [7]
  Procollagenase Production: 22 ± 2.4 unit/ml

## OCCNCCO [Example 2, diethanolamine]
[2]; Homo sapiens, Fibroblast, control = 100, read-out: Response to βFGF Increment
  activity at 1000 µM: 190%
[2]; mean ± SD, n = 3
  Procollagenase Production: 14 ± 1.3 unit/ml

## CC(N)CO (racemic) [Example 6, D,L-2-Amino-1-Propanol]
[1]; [6]
  activity at 3000 µM: 380%
[1]; [7]
  Procollagenase Production: 33 ± 4.7 unit/ml

## NCCO [Example 3, ethanolamine]
[3]; Homo sapiens, Fibroblast, 144 h, read-out: Response to TGF-β1 Increment
  activity at 1000 µM: 160%
[3]; Test Example 13, 1 mM, 4 days, supernatant 6 days after TGF-β1, mean ± SD, n = 3
  TIMP Production: 250 ± 9.0 unit/ml
Healthy panelists; 0.05 ml of aqueous 1% (W/V) solution, 24 hours closed patch, 1 hour and 24 hours after removal, 19 panelists
  panelists with erythema: only one panelists had minor erythema
[4]; 0.1 ml of aqueous 0.1% (W/V) solution, once a day for 4 days
  Cumulative Stimulation Score: 0
[4]; aqueous 0.1% (W/V) solution
  cumulative stimulation to the skin (in words): low
[5]; 0.1 ml of aqueous 1% (W/V) solution, patch 24 hours, normal and scratched skin
  Primary Stimulation Score: 0
[5]; aqueous 1% (W/V) solution
  stimulation to the skin (in words): low
[1]
  activity at 1000 µM: 180%
[1]; [8]
  Procollagenase Production: 21 ± 1.3 unit/ml

## CCC(O)CN (stereo not shown) [Example 9, 1-Amino-2-Butanol]
[1]; [6]
  activity at 3000 µM: 290%
[1]; [7]
  Procollagenase Production: 24 ± 2.3 unit/ml

## CC(O)CNCC(C)O (stereo not shown) [Example 5, Diisopropanolamine]
[1]; [6]
  activity at 3000 µM: 760%
[1]; [7]
  Procollagenase Production: 65 ± 13 unit/ml

## CNCCO [Example 4, N-methylethanolamine]
Healthy panelists; in vivo
  panelists with erythema: only one panelists had minor erythema
[4]; rabbit, in vivo
  cumulative stimulation to the skin (in words): low
[5]; rabbit, in vivo
  Primary Stimulation Score: 0.25
  stimulation to the skin (in words): low
[1]; Test Examples 4-5, 1 mM, 4 days, 3 ng/ml βFGF, control = 100
  activity at 1000 µM: 180%
[1]; [8]
  Procollagenase Production: 12 ± 1.7 unit/ml

## NCC(O)CN [Example 8, 1,3-Diamino-2-Propanol]
[1]; [6]
  activity at 3000 µM: 150%
[1]; [7]
  Procollagenase Production: 18 ± 0.95 unit/ml
